Data taken from paper PMC6235536 (Science Advances, 2018).
Residues, ends and D or L forms follow the SMILES beside them.

Experiments:
E. coli = conditions: IM or OM of E. coli; cited from earlier work
Gram-negative strains = conditions: all the Gram-negative strains tested; cited from earlier work
[1] = molecular target: LptA labeled with DyLight650 (E. coli) (UniProt P0ADV1); assay: MST
LptA-His6 (E. coli) = LptA-His6 (E. coli) (UniProt P0ADV1); assay: fluorescence polarisation

## CC[C@H](C)CCCCC(=O)N[C@@H](CCN)C(=O)N[C@H](C(=O)N[C@@H](CCN)C(=O)N[C@H]1CCNC(=O)[C@H]([C@@H](C)O)NC(=O)[C@H](CCN)NC(=O)[C@H](CCN)NC(=O)[C@H](CC(C)C)NC(=O)[C@@H](CC(C)C)NC(=O)[C@H](CCN)NC1=O)[C@@H](C)O [Colistin] (HELM PEPTIDE1{[CC[C@H](C)CCCCC(=O)[*:2]].[Dab].T.[Dab].[Dab].[Dab].[dL].L.[Dab].[Dab].T}$PEPTIDE1,PEPTIDE1,5:R3-11:R2$$$V2.0; N-terminus assumed; bridges inferred)
E. coli
  membrane permeabilization by other cationic antimicrobial peptides: unlike what is seen with some other cationic antimicrobial peptides

## D-thanatin: enantiomeric form of thanatin (comprising all D-amino acids)
Gram-negative strains
  activity of enantiomeric form: loses much of its activity

## polymyxin B
E. coli
  membrane permeabilization by other cationic antimicrobial peptides: unlike what is seen with some other cationic antimicrobial peptides

## thanatin (peptide)
[1]
  Kd: 20 nM

## thanatin-BDP-FL (peptide)
LptA-His6 (E. coli)
  Kd: 12 nM
